The target in the first experiment is human SSTR2 (Homo sapiens (Human), UniProt P30874). In words: Human SSTR2 intracellular cAMP functional assay for agonists (HTRF). Format: cell-based.
human SSTR2, sequence (P30874 whole entry): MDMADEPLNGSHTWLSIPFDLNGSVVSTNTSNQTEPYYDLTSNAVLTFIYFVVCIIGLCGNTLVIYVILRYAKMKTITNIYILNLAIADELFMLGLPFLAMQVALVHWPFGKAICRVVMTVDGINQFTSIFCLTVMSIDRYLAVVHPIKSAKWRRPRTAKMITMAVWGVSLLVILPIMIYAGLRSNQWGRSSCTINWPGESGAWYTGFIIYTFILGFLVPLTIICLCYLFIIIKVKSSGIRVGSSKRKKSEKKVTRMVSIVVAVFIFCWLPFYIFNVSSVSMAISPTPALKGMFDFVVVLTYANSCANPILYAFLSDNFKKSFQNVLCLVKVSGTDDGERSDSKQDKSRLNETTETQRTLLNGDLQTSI
Details: not given
Here is the method:
Functional Assay for SSTR2 Agonists
General overview: All five SSTR subtypes are Gi coupled G-protein coupled receptors (GPCRs) that lead to decreases in intracellular cyclic AMP (cAMP) when activated by an agonist. […] Human SSTR2 intracellular cAMP assay is described below. The human SSTR1, 3, 4 and 5 assays follow the same protocol of SSTR2.
The cells are cultured at 37° C., 5% CO2 and 95% humidity. […] The cells are incubated for 20 minutes at 37° C. […] The cells are treated with 50 μL of lysis buffer (HRTF cAMP kit, Cisbio). […] The time-resolved fluorescent signal is read with a Tecan M1000Pro multiplate reader. The intracellular cAMP concentrations are calculated by regression to a standard curve and are plotted vs. the concentration of the compounds of the invention and the EC50 of the compounds are calculated using standard methods. All data manipulations are in GraphPad Prism v6.
One may read the EC50 as the concentration that produces a half-maximal response. The compound `CO[C@@H]1CN(c2c(-c3cc(F)cc(F)c3)cnc3ccc(-c4cccc(C#N)c4O)cc23)CC[C@H]1N` (relative stereo) [2-3, 3-{4-[trans-4-amino-3-methoxypiperidin-1-yl]-3-(3,5-difluorophenyl)quinolin-6-yl}-2-hydroxybenzonitrile] displayed an EC50 of less than 10 nM.

Staying with this experiment, now noted: CHO-K1 cells stably expressing human SSTR2; NKH477-stimulated cAMP; read-out: EC50 (inhibition of cAMP activities via human SST2R).
Take “3-[4-(4-aminopiperidin-1-yl)-7-chloro-3-(3,5-dichlorophenyl)cinnolin-6-yl]-5-fluoro-2-hydroxybenzonitrile [1-27]”: the EC50 was less than 10 nM.
With `Oc1c(F)cccc1-c1ccc2ncc(-c3cc(F)cc(F)c3)c(N3CC[C@H]4NCCO[C@@H]4C3)c2c1` (racemic) [2-144, trans-2-[3-(3,5-difluorophenyl)-4-{octahydro-1H-pyrido[3,4-b]morpholin-6-yl}quinolin-6-yl]-6-fluorophenol], the EC50 is less than 10 nM.
In the case of `COCCOc1c(C#N)cccc1-c1ccc2ncc(-c3cc(C)cc(F)c3)c(N3CC[C@@H](N)[C@@H](O)C3)c2c1` (racemic) [2-224, 3-{4-[cis-4-amino-3-hydroxypiperidin-1-yl]-3-(3-fluoro-5-methylphenyl)quinolin-6-yl}-2-(2-methoxyethoxy)benzonitrile], the EC50 is less than 10 nM.
Same read-out and setting: the value for `Cc1cc(F)cc(-c2cnc3ccc(-c4cccc(F)c4/C=N/O)cc3c2N2CC[C@@H](N)[C@@H](O)C2)c1` (racemic) [2-227, cis-4-amino-1-(6-{3-fluoro-2-[(hydroxyimino)methyl]phenyl}-3-(3-fluoro-5-methylphenyl)quinolin-4-yl)piperidin-3-ol] was less than 10 nM; that for `CO/N=C/c1cccc(-c2ccc3ncc(-c4cc(F)cc(F)c4)c(N4CC[C@H]5NCCO[C@@H]5C4)c3c2)c1O` (racemic) [2-243, 2-{4-[trans-octahydro-1H-pyrido[3,4-b]morpholin-6-yl]-3-(3,5-difluorophenyl)quinolin-6-yl}-6-(methoxyiminomethyl)phenol] was less than 10 nM; that for `Cc1cc(F)cc(-c2nnc3cc(Cl)c(-c4cc(F)cc(C(N)=O)c4)cc3c2N2CC[C@@H](N)[C@H](F)C2)c1` (relative stereo) [1-5, 3-{4-[trans-4-amino-3-fluoropiperidin-1-yl]-7-chloro-3-(3-fluoro-5-methylphenyl)cinnolin-6-yl}-5-fluorobenzamide] was less than 10 nM.
As to `Cc1cc(F)cc(-c2nnc3cc(Cl)c(-c4cc(F)cc(C(N)=O)c4)cc3c2N2CC[C@H](N)[C@H](F)C2)c1` (relative stereo) [1-6, 3-{4-[cis-4-amino-3-fluoropiperidin-1-yl]-7-chloro-3-(3-fluoro-5-methylphenyl)cinnolin-6-yl}-5-fluorobenzamide], the 50% effective concentration (EC50) is less than 10 nM.
On to `CO[C@@H]1CN(c2c(-c3cc(C)cc(F)c3)nnc3cc(Cl)c(-c4cc(F)cc(C(N)=O)c4)cc23)CC[C@H]1N` (relative stereo) [1-10, 3-{4-[trans-4-amino-3-methoxypiperidin-1-yl]-7-chloro-3-(3-fluoro-5-methylphenyl)cinnolin-6-yl}-5-fluorobenzamide], for which the EC50 is less than 10 nM.
`CO[C@@H]1CN(c2c(-c3cc(F)cc(F)c3)cnc3ccc(-c4cccc(C#N)c4)cc23)CC[C@H]1N` (relative stereo) [2-4, 3-{4-[trans-4-amino-3-methoxypiperidin-1-yl]-3-(3,5-difluorophenyl)quinolin-6-yl}benzonitrile]: the EC50 is less than 10 nM.
On to `N#Cc1cccc(-c2ccc3ncc(-c4cc(F)cc(F)c4)c(N4CC[C@H]5NCCO[C@@H]5C4)c3c2)c1O` (relative stereo) [2-19, 3-{4-[trans-octahydro-1H-pyrido[3,4-b]morpholin-6-yl]-3-(3,5-difluorophenyl)quinolin-6-yl}-2-hydroxybenzonitrile], for which the half-maximal effective concentration (EC50) is less than 10 nM.
Same read-out and setting: as for `Cc1cc(F)cc(-c2cnc3ccc(-c4cccc(C#N)c4O)cc3c2N2CC[C@H]3NCCO[C@@H]3C2)c1` (relative stereo) [2-20], the figure is less than 10 nM.

Source of the values: patent US10351547B2, “Somatostatin modulators and uses thereof” (priority 2016, dated 2019).
